Results reported in patent US20250257331A1, “FLAVONOID GLYCOSIDE GLYCOSYLTRANSFERASE LbUGT71BX1 IN LAPORTEA BULBIFERA AS WELL AS THE CODING GENE AND THE USE THEREOF” (INSTITUTE OF CHINESE MATERIA MEDICA CHINA ACADEMY OF …, priority 2024, published 2025).
Entries after “also recorded” stand apart in the source; their conditions may differ.

System: glycosyltransferase LbUGT71BX1
Assay: in-vitro enzyme activity testing of recombinant LbUGT71BX1 with flavonoid substrates and UDP-sugar donors (LC-Q-TOF-MS)
Type: biochemical, Laportea bulbifera
Conditions: purified recombinant enzyme, 37° C., 1 hour, Tris-HCl pH 7.5, compared with pMAL-c2X empty control
Method: The in-vitro enzyme activity testing steps are as follows: the 50 μL reaction system contained 1 μL flavonoid substrate (40 mM) (kaempferol or myricetin or gossypetin or quercetagetin), 1 μL UDP-sugar donor (100 mM) (UDP-galactose or UDP-glucose) and […] purified enzyme, and Tris-HCl buffer (pH 7.5) was used to complement the system. With the pMAL-c2X empty crude enzyme catalytic system as a negative control, place the reaction system at 37° C. for 1 hour, and add the same volume of methanol to stop the reaction. Concentrate the above mixture in vacuo and reconstitute it with 100 μL of methanol. Perform filtration using a 0.22 m microporous membrane and transfer the sample to a liquid vial for assay. Use the Agilent 1290 Infinity II-6430 Q-TOF to test the sample. The specific liquid conditions are as follows: (1) Column: ACQUITY UPLC BEH C18 1.7 m 2.1×100 mm; (2) Mobile phase: 0.1% pure water for phase A and chromatographic acetonitrile for phase B; (3) Flow rate: 0.3 mL/min; (4) Column temperature: 40° C.; (5) Injection volume: 1.0 μL; (6) Elution conditions are shown in Table 6. The mass spectrometry conditions are: the ion mode is negative ion, the scan range is 100-3000; the mode is Automated MS/MS; the ion fragment collision energy is 20 V; the source temperature is 350° C.; the nebulizer pressure is set to 30 psi.

product generated from the flavonoid substrate by LbUGT71BX1 (UDP-galactose as sugar donor) | SMILES | product generated from the flavonoid substrate by LbUGT71BX1 (UDP-glucose as sugar donor)
kaempferol-3-O-galactoside | O=c1c(O)c(-c2ccc(O)cc2)oc2cc(O)cc(O)c12 [kaempferol] | kaempferol-3-O-glucoside
– | O=c1c(O)c(-c2ccc(O)c(O)c2)oc2c(O)c(O)cc(O)c12 [gossypetin] | gossypetin-3-O-glucoside
myricetin-3-O-galactoside | O=c1c(O)c(-c2cc(O)c(O)c(O)c2)oc2cc(O)cc(O)c12 [myricetin] | myricetin-3-O-glucoside; also recorded: myricetin-7-O-glucoside
